These are literature values, as cited in patent publication US7790164B2, “Fragments of antibodies to epidermal growth factor receptor and methods of their use” (Van Andel Research Institute, priority 2007, dated 2010).

For orientation: IC50 means the concentration needed to halve the response being measured.

The data set deals with A431 cells. As to conditions: Ojima et al. J Med Chem 2002, read-out: IC50 of A431 to paclitaxel; cited from earlier work.

For the compound `CC(=O)O[C@H]1C(=O)[C@@]2(C)[C@H]([C@H](OC(=O)c3ccccc3)[C@]3(O)C[C@H](OC(=O)[C@H](O)[C@@H](NC(=O)c4ccccc4)c4ccccc4)C(C)=C1C3(C)C)[C@]1(OC(C)=O)CO[C@@H]1C[C@@H]2O` [paclitaxel], the IC50 is around 90 pM.
